# Data taken from US12329158B2, “Large-scale methods of uniformly coating packaging surfaces with a volatile antimicrobial to preserve food freshness” (AGROFRESH INC., priority 2013, dated 2025).
# Assays:
# M. piriformis = assay: Volatile MIC assay (Example 11); format: cell-based; conditions: Mucor piriformis
# Penicillium digitatum = assay: Green mold on orange, contact assay (Example 25); format: in vivo; conditions: Contact (dip); rate not given; day 3 at 21 C after 5 days at 1 C
# Experimental: A 250 mL solution of each concentration is used to dip two inoculated fruits, one minute per fruit, performed in triplicate per rate. The dipped fruits are then placed back into the clamshells and then into the SnapWare container and incubated at 1° C. for 5 days. […] Volatile application of Compound A results in excellent inhibition of browning and sporulation, whereas all other active ingredients result in no or little inhibition.
# Escherichia coli = assay: In vitro volatile inhibition assay against bacteria (Example 8); format: cell-based; parameters: key: 0 = No colonies; 1 = Micro colonies not connected; 2 = Small colonies with some merging; 3 = Large colonies merging together; conditions: 5.00 mg per disk
# Experimental: For testing activity against bacteria pathogens, 12-Well (7 mL volume per well) microtiter plates are used for the in vitro inhibition assay for volatile antimicrobial compounds. A 3-mL volume of full-strength LB Agar is added to each well. After cooling, 15 μL of Escherichia coli, adjusted to an optical density of 0.02 to 0.035, and further diluted 1/10 is pipetted to the center of the agar and tilted to distribute uniformly. Small Whatman #1 filter disks (Cat. No. 1001-0155) are placed, in duplicate, on the underside of a polyethylene polymerase chain reaction (PCR) plate sealing film. For determination of the minimum inhibitory concentration (MIC), Compound A is diluted in acetone, and 5 mg of compound is added to the disks. The acetone is permitted to evaporate for 5 minutes. The headspace around the Escherichia coli inoculum is then sealed inside the well by the film with the adhering disk containing the fungicide. Plates are inverted, placed over the treated disks and sealed to prevent any of the chemical from flaking from the disk and falling onto the inoculated agar. After 3 days of storage at 4° C., cultures are transferred to 23° C. for an additional 2 days, and then evaluated for colony growth relative to control.
# Botrytis cinerea [1] = assay: In vitro inhibition assay for volatile fungicide, 12-well plates (Example 7); format: cell-based
# Experimental: For testing activity against fungi pathogens, an in vitro inhibition assay for volatile antimicrobial compounds is developed using 12-Well (7 milliliter (mL) volume per well) microtiter plates. A 3-mL volume of full-strength Potato Dextrose Agar (PDA) is added to each well. After cooling, 1 microliter (μL) of 1×10^6 per mL Botrytis cinerea spore suspension is spot pipetted to the center of the agar. For the first experiment, inoculated plates are allowed to germinate for 5 days at 4° C. For the second experiment, plates are inoculated immediately prior to volatile fungicide treatment. Small Whatman #1 filter disks (Cat. No. 1001-0155) are placed, in duplicate, on the underside of a polyethylene PCR plate sealing film.
# The acetone is permitted to evaporate for 5 minutes. The headspace around the Botrytis cinerea inoculum is then sealed inside the well by the film with the adhering disk containing the fungicide. Plates are inverted, placed over the treated disks and sealed to prevent any of the chemical from flaking from the disk and falling onto the inoculated agar. After 14 days of storage at 4° C., cultures are evaluated for percent growth relative to control. […]
# Botrytis cinerea [2] = assay: Dose response, sprayed clamshells; strawberries (Example 4); format: in vivo; conditions: spraying
# Experimental: Five milligrams of Compound A was dissolved in 1 ml of ethanol prior to being uniformly administered to the interior of the clamshell by painting or spraying, and then dried for 5 minutes. After coating the clamshells with Compound A using various application techniques (i.e., sublimation, spraying, or painting), eight ethanol-washed strawberries were placed in the clamshell with stem end facing downwards. Each strawberry fruit was wounded using a T15 screwdriver tip to a uniform depth of eight mm (8 mm). […] Uninoculated strawberries were removed from their commercial package, and directly transferred into treated clamshells without any washing or inoculation steps.
# Treated clamshells lids were closed, and then placed at 1° C. for an initial time period of 5 days. Clamshells were then removed from low temperature, and held for a second time period of 6 days at room temperature where the point of inoculation on the strawberry fruits was assessed for indication of disease incidence reported as a percentage (%). Severity of disease incidence was also reported.
# This in vivo assay was used to evaluate the ability of different concentrations of Compound A to volatilize from clamshell in order to control or inhibit fruit infection by pathogenic microorganism, Botrytis cinerea. This experiment was conducted exactly as described in Example 1, with a few exceptions. After equilibrating the clamshell overnight at 21° C., Compound A was administered to the clamshells by spraying only. Compound A was sprayed onto the surface of the clamshells at a final treatment rate of 5 mg/clamshell or 1 mg/clamshell. The clamshells were then permitted to dry for 5 minutes. Strawberries were inoculated with Botrytis cinerea, placed within the clamshells for the initial time period (i.e., 5 days), and assessed for disease incidence and severity over the second time period (i.e., 6 days) as described in Example 1.
# [3] = Inoculated Fruit, 1 mg/clamshell, Day 0
# [4] = Inoculated Fruit, 1 mg/clamshell, Day 1
# [5] = Inoculated Fruit, 1 mg/clamshell, Day 2
# [6] = Inoculated Fruit, 1 mg/clamshell, Day 3
# [7] = Inoculated Fruit, 1 mg/clamshell, Day 4
# [8] = Inoculated Fruit, 1 mg/clamshell, Day 5
# [9] = Inoculated Fruit, 1 mg/clamshell, Day 6
# [10] = Inoculated Fruit, 5 mg/clamshell, Day 0
# [11] = Inoculated Fruit, 5 mg/clamshell, Day 1
# [12] = Inoculated Fruit, 5 mg/clamshell, Day 2
# [13] = Inoculated Fruit, 5 mg/clamshell, Day 3
# [14] = Inoculated Fruit, 5 mg/clamshell, Day 4
# [15] = Inoculated Fruit, 5 mg/clamshell, Day 5
# [16] = Inoculated Fruit, 5 mg/clamshell, Day 6
# [17] = Uninoculated Fruit, 5 mg/clamshell, Day 0
# [18] = Uninoculated Fruit, 5 mg/clamshell, Day 1
# [19] = Uninoculated Fruit, 5 mg/clamshell, Day 2
# [20] = Uninoculated Fruit, 5 mg/clamshell, Day 6
compound,measurement,setting,value
"OB1OCc2cc(F)ccc21 [Compound A, 5-fluoro-1,3-dihydro-1-hydroxy-2,1-benzoxaborole]",MIC,M. piriformis,1.1 µg/mL
same,Orange Sporulation (mm),Penicillium digitatum,>50 mm
same,Colony Rating,Escherichia coli,1
same,Botrytis inhibition % (in vitro),Botrytis cinerea [1]; 0.0006 mg per disk,46%
same,Botrytis inhibition % (in vitro),Botrytis cinerea [1]; 0.001 mg per disk,69%
same,Botrytis inhibition % (in vitro),Botrytis cinerea [1]; 0.0024 mg per disk,85%
same,Botrytis inhibition % (in vitro),Botrytis cinerea [1]; 0.005 mg per disk,100%
same,Botrytis inhibition % (in vitro),Botrytis cinerea [1]; 0.01 mg per disk,100%
same,Botrytis inhibition % (in vitro),Botrytis cinerea [1]; 0.023 mg per disk,100%
same,Botrytis inhibition % (in vitro),Botrytis cinerea [1]; 0.04 mg per disk,100%
same,Botrytis inhibition % (in vitro),Botrytis cinerea [1]; 0.08 mg per disk,100%
same,Botrytis inhibition % (in vitro),Botrytis cinerea [1]; 0.16 mg per disk,100%
same,Botrytis inhibition % (in vitro),Botrytis cinerea [1]; 0.31 mg per disk,100%
same,Botrytis inhibition % (in vitro),Botrytis cinerea [1]; 0.63 mg per disk,100%
same,Botrytis inhibition % (in vitro),Botrytis cinerea [1]; 1.25 mg per disk,100%
same,Rate giving 100% in vitro inhibition of Botrytis cinerea,"Botrytis cinerea [1]; volatile, 14 days at 4 C",0.005 mg/disk
same,Gray Mold Incidence (%),Botrytis cinerea [2]; [3],0.0%
same,Gray Mold Severity (0-4),Botrytis cinerea [2]; [3],0.0
same,Gray Mold Incidence (%),Botrytis cinerea [2]; [4],0.0%
same,Gray Mold Severity (0-4),Botrytis cinerea [2]; [4],0.0
same,Gray Mold Incidence (%),Botrytis cinerea [2]; [5],1.3%
same,Gray Mold Severity (0-4),Botrytis cinerea [2]; [5],0.0
same,Gray Mold Incidence (%),Botrytis cinerea [2]; [6],3.8%
same,Gray Mold Severity (0-4),Botrytis cinerea [2]; [6],0.1
same,Gray Mold Incidence (%),Botrytis cinerea [2]; [7],11.3%
same,Gray Mold Severity (0-4),Botrytis cinerea [2]; [7],0.2
same,Gray Mold Incidence (%),Botrytis cinerea [2]; [8],36.3%
same,Gray Mold Severity (0-4),Botrytis cinerea [2]; [8],0.6
same,Gray Mold Incidence (%),Botrytis cinerea [2]; [9],52.5%
same,Gray Mold Severity (0-4),Botrytis cinerea [2]; [9],1.5
same,Gray Mold Incidence (%),Botrytis cinerea [2]; [10],0.0%
same,Gray Mold Severity (0-4),Botrytis cinerea [2]; [10],0.0
same,Gray Mold Incidence (%),Botrytis cinerea [2]; [11],0.0%
same,Gray Mold Severity (0-4),Botrytis cinerea [2]; [11],0.0
same,Gray Mold Incidence (%),Botrytis cinerea [2]; [12],0.0%
same,Gray Mold Severity (0-4),Botrytis cinerea [2]; [12],0.0
same,Gray Mold Incidence (%),Botrytis cinerea [2]; [13],0.0%
same,Gray Mold Severity (0-4),Botrytis cinerea [2]; [13],0.0
same,Gray Mold Incidence (%),Botrytis cinerea [2]; [14],0.0%
same,Gray Mold Severity (0-4),Botrytis cinerea [2]; [14],0.0
same,Gray Mold Incidence (%),Botrytis cinerea [2]; [15],0.0%
same,Gray Mold Severity (0-4),Botrytis cinerea [2]; [15],0.0
same,Gray Mold Incidence (%),Botrytis cinerea [2]; [16],0.0%
same,Gray Mold Severity (0-4),Botrytis cinerea [2]; [16],0.0
same,Gray Mold Incidence (%),"Botrytis cinerea [2]; Uninoculated Fruit, 1 mg/clamshell, Day 0",0.0%
same,Gray Mold Incidence (%),"Botrytis cinerea [2]; Uninoculated Fruit, 1 mg/clamshell, Day 1",1.9%
same,Gray Mold Incidence (%),"Botrytis cinerea [2]; Uninoculated Fruit, 1 mg/clamshell, Day 2",21.6%
same,Gray Mold Incidence (%),"Botrytis cinerea [2]; Uninoculated Fruit, 1 mg/clamshell, Day 3",89.5%
same,Gray Mold Incidence (%),"Botrytis cinerea [2]; Uninoculated Fruit, 1 mg/clamshell, Day 4",100.0%
same,Gray Mold Incidence (%),"Botrytis cinerea [2]; Uninoculated Fruit, 1 mg/clamshell, Day 5",100.0%
same,Gray Mold Incidence (%),"Botrytis cinerea [2]; Uninoculated Fruit, 1 mg/clamshell, Day 6",100.0%
same,Gray Mold Incidence (%),Botrytis cinerea [2]; [17],0.5%
same,Gray Mold Severity (0-4),Botrytis cinerea [2]; [17],0.1
same,Gray Mold Incidence (%),Botrytis cinerea [2]; [18],0.5%
same,Gray Mold Severity (0-4),Botrytis cinerea [2]; [18],0.1
same,Gray Mold Incidence (%),Botrytis cinerea [2]; [19],0.9%
same,Gray Mold Severity (0-4),Botrytis cinerea [2]; [19],0.3
same,Gray Mold Incidence (%),"Botrytis cinerea [2]; Uninoculated Fruit, 5 mg/clamshell, Day 3",3.3%
same,Gray Mold Incidence (%),"Botrytis cinerea [2]; Uninoculated Fruit, 5 mg/clamshell, Day 4",16.2%
same,Gray Mold Incidence (%),"Botrytis cinerea [2]; Uninoculated Fruit, 5 mg/clamshell, Day 5",31.9%
same,Gray Mold Incidence (%),Botrytis cinerea [2]; [20],78.5%
same,Gray Mold Severity (0-4),Botrytis cinerea [2]; [20],3.5
